Experimental data: patent publication US5334589A, “Quinolone carboxylic acid--metal ion--acid complexes” (Abbott Laboratories, priority 1992, dated 1994)
Read-outs that look alike come from different tables or passages of the source. Blank lines part the entries; values can stand above or below the compound they belong to.

Tests used:
[1] = test system: rat tail vein; assay: Vein irritation in rats (rat tail vein model); settings: 100 mg/kg/day i.v., normal saline; for Normalized Rank: 5=normal
Experimental: Three studies were conducted: In Study I, four rats per group were given test compositions for three consecutive days at a concentration of 4 mg/ml (this and other concentrations expressed in terms of equivalent weight of temafloxacin base); in Study II, three rats per group were given test compositions for five consecutive days at 6 mg/ml; and in Study III, two groups of three rats each were given test compositions for five consecutive days at 4 mg/ml and 8 mg/ml, respectively. All rats were dosed at 100 mg/kg/day, with an infusion rate of 0.3 ml/minute.
Each rat was observed twice after each infusion: Once after 1-to-2 hours following injection, and again after 24 hours. Discoloration was ranked as follows:
4=Single red/pink spot of discoloration
3=Multiple red/pink spots of discoloration
2=Single purple spot of discoloration
1=Multiple purple spots of discoloration
0=Approx. one-fourth of distal tail discolored purple
Aggregate rankings were totaled for each group over the course of each study.

[2] = Solubility; assay type: physicochemical

Structure (SMILES): CC1CN(c2cc3c(cc2F)c(=O)c(C(=O)O)cn3-c2ccc(F)cc2F)CCN1 (stereo not drawn) [Control A]
Normalized Rank ([1]; Study I, 4 mg/ml, three consecutive days, group total / number of animals / number of measurements, 0=worst): 2.29
Total Rank ([1]; Study I, 4 rats, 4 mg/ml, three consecutive days, discoloration rank 5=normal to 0=one-fourth of distal tail purple): 55

Structure (SMILES): CC1CN(c2cc3c(cc2F)c(=O)c(C(=O)O)cn3-c2ccc(F)cc2F)CCN1 (stereo not drawn) [Control B]
Normalized Rank ([1]; Study II, 6 mg/ml, five consecutive days, 0=worst): 3.23
Total Rank ([1]; Study II, 3 rats, 6 mg/ml, five consecutive days, rank 5=normal, 0=worst): 97

solubility ([2]; about pH 4 to about pH 10, read-out: solubility): < 500 µg/mL
solubility ([2]; temafloxacin base in water, read-out: solubility in water): < 500 µg/mL
Structure (SMILES): CC1CN(c2cc3c(cc2F)c(=O)c(C(=O)O)cn3-c2ccc(F)cc2F)CCN1 (stereo not drawn) [temafloxacin, 1-(2,4-difluorophenyl)-6-fluoro-1,4-dihydro-7-(3-methyl-l-piperazinyl)-4-oxo-3-quinoline carboxylic acid]
